# Reference: PubChem BioAssay (NCI)
#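 Protocol summary: plate cells (96-well), add compound at 5 concentrations, incubate 48 h, interpolate endpoints linearly. GI50 marks 50% less growth. Definition used: TGI = concentration required for complete inhibition of growth.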
# Columns and labels:
# Experiment in all cases: growth of human tumour cells (NCI), 48 h
# [1] = test system: MDA-MB-468 breast
# [2] = test system: RXF 393 renal
# [3] = test system: SF-268 CNS
# [4] = test system: EKVX NSCLC
# [5] = test system: NCI-H522 lung
# [6] = test system: SW-620 colon
# [7] = test system: DU-145 prostate
# [8] = test system: K-562 leukemia
# [9] = test system: HCC-2998 colon
# [10] = test system: SNB-19 CNS
# [11] = test system: HS 578T breast
# [12] = test system: UACC-62 melanoma
# [13] = test system: NCI-H460 lung
# [14] = test system: SK-MEL-2 melanoma
# [15] = test system: MCF7 breast
# [16] = test system: SK-OV-3 ovarian
# [17] = test system: A498 renal
# [18] = test system: OVCAR-3 ovarian
# [19] = test system: HOP-62 NSCLC
# [20] = test system: IGROV1 ovarian
# [21] = test system: HT29 colon
# [22] = test system: HL-60(TB) leukemia
# [23] = test system: MDA-MB-435
# [24] = test system: HCT-15 colon
# [25] = test system: COLO 205 colon
# [26] = test system: M14 melanoma
# [27] = test system: LOX IMVI melanoma
# [28] = test system: 786-0 renal
# [29] = test system: PC-3 prostate
# [30] = test system: NCI-H23 lung
# [31] = test system: MDA-MB-231 breast
# [32] = test system: KM12 colon
# [33] = test system: SR leukemia
# [34] = test system: HCT-116 colon
# [35] = test system: CAKI-1 renal
# [36] = test system: MALME-3M melanoma
# [37] = test system: NCI-H226 lung
# [38] = test system: MOLT-4 leukemia
# [39] = test system: BT-549 breast
# [40] = test system: SNB-75 CNS
# [41] = test system: U251 CNS
# [42] = test system: SK-MEL-5 melanoma
# [43] = test system: HOP-92 NSCLC
# [44] = test system: OVCAR-4 ovarian
# [45] = test system: SK-MEL-28 melanoma
# [46] = test system: T-47D breast
# [47] = test system: SF-295 CNS
# [48] = test system: UO-31 renal
# [49] = test system: UACC-257 melanoma
# [50] = test system: OVCAR-8 ovarian
# [51] = test system: ACHN renal
# [52] = test system: RPMI-8226 leukemia
# [53] = test system: OVCAR-5 ovarian
# [54] = test system: TK-10 renal
# [55] = test system: SF-539 CNS
# [56] = test system: NCI/ADR-RES ovarian
# [57] = test system: SN12C renal
# [58] = test system: CCRF-CEM leukemia
# [59] = test system: A549 NSCLC
smiles,measurement,setting,value
CCOc1ccc(/C=N/NC(=O)Cn2nc(Cc3ccc(OC)cc3)c3onc(C)c3c2=O)cc1,GI50,[1],9.93 µM
same,TGI,[1],29.3 µM
same,GI50,[2],2.71 µM
same,TGI,[2],6.38 µM
same,GI50,[3],10.5 µM
same,TGI,[3],27.4 µM
same,GI50,[4],10.8 µM
same,TGI,[4],30.3 µM
same,GI50,[5],14.5 µM
same,TGI,[5],37.7 µM
same,GI50,[6],7.37 µM
same,TGI,[6],36.5 µM
same,GI50,[7],9.35 µM
same,TGI,[7],26.9 µM
same,GI50,[8],37.6 µM
same,TGI,[8],> 100 µM
same,GI50,[9],11 µM
same,TGI,[9],27.4 µM
same,GI50,[10],12.2 µM
same,TGI,[10],32.4 µM
same,GI50,[11],4.26 µM
same,TGI,[11],29 µM
same,GI50,[12],13.2 µM
same,TGI,[12],32.7 µM
same,GI50,[13],5.32 µM
same,TGI,[13],19.2 µM
same,GI50,[14],18.4 µM
same,TGI,[14],41 µM
same,GI50,[15],4.37 µM
same,TGI,[15],23.9 µM
same,GI50,[16],4.12 µM
same,TGI,[16],14.5 µM
same,GI50,[17],3.83 µM
same,TGI,[17],13.7 µM
same,GI50,[18],3.2 µM
same,TGI,[18],10.4 µM
same,GI50,[19],4.8 µM
same,TGI,[19],18.1 µM
same,GI50,[20],15.3 µM
same,TGI,[20],43 µM
same,GI50,[21],12.3 µM
same,TGI,[21],32.9 µM
same,GI50,[22],51.1 µM
same,TGI,[22],> 100 µM
same,GI50,[23],25.7 µM
same,TGI,[23],> 100 µM
same,GI50,[24],15.1 µM
same,TGI,[24],> 100 µM
same,GI50,[25],40 µM
same,TGI,[25],> 100 µM
same,GI50,[26],13.7 µM
same,TGI,[26],75.1 µM
same,GI50,[27],10.9 µM
same,TGI,[27],27.9 µM
same,GI50,[28],2.99 µM
same,TGI,[28],10.4 µM
same,GI50,[29],12.4 µM
same,TGI,[29],84.8 µM
same,GI50,[30],10.7 µM
same,TGI,[30],33.1 µM
same,GI50,[31],9.23 µM
same,TGI,[31],27.9 µM
same,GI50,[32],41.8 µM
same,TGI,[32],> 100 µM
same,GI50,[33],40.3 µM
same,TGI,[33],> 100 µM
same,GI50,[34],3.39 µM
same,TGI,[34],11.6 µM
same,GI50,[35],3.8 µM
same,TGI,[35],14.8 µM
same,GI50,[36],4.86 µM
same,TGI,[36],19.5 µM
same,GI50,[37],3.43 µM
same,TGI,[37],15.9 µM
same,GI50,[38],29.8 µM
same,TGI,[38],> 100 µM
same,GI50,[39],10.3 µM
same,TGI,[39],27.1 µM
same,GI50,[40],1.64 µM
same,TGI,[40],3.42 µM
same,GI50,[41],3.96 µM
same,TGI,[41],17.1 µM
same,GI50,[42],39.7 µM
same,TGI,[42],> 100 µM
same,GI50,[43],3.61 µM
same,TGI,[43],16.5 µM
same,GI50,[44],10.8 µM
same,TGI,[44],25.3 µM
same,GI50,[45],10.4 µM
same,TGI,[45],24.8 µM
same,GI50,[46],3.46 µM
same,TGI,[46],22.3 µM
same,GI50,[47],6.77 µM
same,TGI,[47],21.8 µM
same,GI50,[48],4.08 µM
same,TGI,[48],19.5 µM
same,GI50,[49],13.3 µM
same,TGI,[49],60.9 µM
same,GI50,[50],11.2 µM
same,TGI,[50],42.1 µM
same,GI50,[51],3.33 µM
same,TGI,[51],11 µM
same,GI50,[52],78.2 µM
same,TGI,[52],> 100 µM
same,GI50,[53],14.4 µM
same,TGI,[53],51.8 µM
same,GI50,[54],11 µM
same,TGI,[54],28.8 µM
same,GI50,[55],7.35 µM
same,TGI,[55],20 µM
same,GI50,[56],5.35 µM
same,TGI,[56],19.7 µM
same,GI50,[57],3.42 µM
same,TGI,[57],13.3 µM
same,GI50,[58],33.4 µM
same,TGI,[58],> 100 µM
same,GI50,[59],3.43 µM
same,TGI,[59],13.1 µM
